Laboratory results as given in the kinase profiling compilation of Christmann-Franck et al. (2016).

target: PRKACB (human) (UniProt P22694); assay: KINOMEscan competition binding; details: compound 10.0 µM

SMILES | kinase still bound, per cent of control
CCOc1cc(N2CCC(N3CCCCC3)CC2)ccc1Nc1nc(Nc2ccccc2S(=O)(=O)C(C)C)c2cn[nH]c2n1 | 100%
CCN1CCN(Cc2ccc(NC(=O)c3ccc(C)c(Oc4ccnc5[nH]ccc45)c3)cc2C(F)(F)F)CC1 | 14%

target: NUAK1 (human) (UniProt O60285); assay: KINOMEscan competition binding; details: compound 10.0 µM
Sequence (O60285 whole entry, looked up): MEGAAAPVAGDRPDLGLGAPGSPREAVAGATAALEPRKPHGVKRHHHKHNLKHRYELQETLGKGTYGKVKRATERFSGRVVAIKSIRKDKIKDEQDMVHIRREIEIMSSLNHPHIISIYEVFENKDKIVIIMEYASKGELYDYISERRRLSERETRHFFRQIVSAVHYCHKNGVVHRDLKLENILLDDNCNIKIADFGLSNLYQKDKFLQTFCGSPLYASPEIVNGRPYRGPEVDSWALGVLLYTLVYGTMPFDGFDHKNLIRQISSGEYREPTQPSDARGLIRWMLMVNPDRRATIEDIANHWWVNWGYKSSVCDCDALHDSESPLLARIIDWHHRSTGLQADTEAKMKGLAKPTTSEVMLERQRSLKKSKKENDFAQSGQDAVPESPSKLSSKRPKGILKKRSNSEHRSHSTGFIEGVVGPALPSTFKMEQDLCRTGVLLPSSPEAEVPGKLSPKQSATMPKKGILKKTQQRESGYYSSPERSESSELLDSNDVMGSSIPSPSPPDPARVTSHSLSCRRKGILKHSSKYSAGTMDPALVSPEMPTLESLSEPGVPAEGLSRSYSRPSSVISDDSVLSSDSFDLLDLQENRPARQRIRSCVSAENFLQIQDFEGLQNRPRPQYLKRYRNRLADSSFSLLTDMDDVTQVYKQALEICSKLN

SMILES | kinase still bound, per cent of control
CCN1CCN(Cc2ccc(NC(=O)c3ccc(C)c(/C=C/c4cnc(Nc5cc(N6CCNCC6)nc(C)n5)cn4)c3)cc2C(F)(F)F)CC1 | 98%
COc1cc(N2CCC(N3CCN(C)CC3)CC2)ccc1Nc1ncc(Cl)c(Nc2ccccc2S(=O)(=O)C(C)C)n1 | 0.75%
CCOc1cc(N2CCC(N3CCCCC3)CC2)ccc1Nc1nc(Nc2ccccc2S(=O)(=O)C(C)C)c2cn[nH]c2n1 | 100%

target: RPS6KA2 KD2 (human) (UniProt Q15349); assay: KINOMEscan competition binding; details: compound 10.0 µM

SMILES | kinase still bound, per cent of control
CCN1CCN(Cc2ccc(NC(=O)c3ccc(C)c(/C=C/c4cnc(Nc5cc(N6CCNCC6)nc(C)n5)cn4)c3)cc2C(F)(F)F)CC1 | 43%
COc1cc(N2CCC(N3CCN(C)CC3)CC2)ccc1Nc1ncc(Cl)c(Nc2ccccc2S(=O)(=O)C(C)C)n1 | 6.2%
CCOc1cc(N2CCC(N3CCCCC3)CC2)ccc1Nc1nc(Nc2ccccc2S(=O)(=O)C(C)C)c2cn[nH]c2n1 | 7.4%

system: EGFR (human), P00533 [G719C]; assay: KINOMEscan competition binding; details: compound 10.0 µM

SMILES | kinase still bound, per cent of control
CCN1CCN(Cc2ccc(NC(=O)c3ccc(C)c(/C=C/c4cnc(Nc5cc(N6CCNCC6)nc(C)n5)cn4)c3)cc2C(F)(F)F)CC1 | 1.8%
CCOc1cc(N2CCC(N3CCCCC3)CC2)ccc1Nc1nc(Nc2ccccc2S(=O)(=O)C(C)C)c2cn[nH]c2n1 | 81%
CCN1CCN(Cc2ccc(NC(=O)c3ccc(C)c(Oc4ccnc5[nH]ccc45)c3)cc2C(F)(F)F)CC1 | 12%

target: PDPK1 (human) (UniProt O15530); assay: KINOMEscan competition binding; details: compound 10.0 µM

SMILES | kinase still bound, per cent of control
CCN1CCN(Cc2ccc(NC(=O)c3ccc(C)c(/C=C/c4cnc(Nc5cc(N6CCNCC6)nc(C)n5)cn4)c3)cc2C(F)(F)F)CC1 | 100%
COc1cc(N2CCC(N3CCN(C)CC3)CC2)ccc1Nc1ncc(Cl)c(Nc2ccccc2S(=O)(=O)C(C)C)n1 | 28%
CCOc1cc(N2CCC(N3CCCCC3)CC2)ccc1Nc1nc(Nc2ccccc2S(=O)(=O)C(C)C)c2cn[nH]c2n1 | 100%

target: CDK15 (human) (UniProt Q96Q40); assay: KINOMEscan competition binding; details: compound 10.0 µM
Sequence (Q96Q40 whole entry, looked up): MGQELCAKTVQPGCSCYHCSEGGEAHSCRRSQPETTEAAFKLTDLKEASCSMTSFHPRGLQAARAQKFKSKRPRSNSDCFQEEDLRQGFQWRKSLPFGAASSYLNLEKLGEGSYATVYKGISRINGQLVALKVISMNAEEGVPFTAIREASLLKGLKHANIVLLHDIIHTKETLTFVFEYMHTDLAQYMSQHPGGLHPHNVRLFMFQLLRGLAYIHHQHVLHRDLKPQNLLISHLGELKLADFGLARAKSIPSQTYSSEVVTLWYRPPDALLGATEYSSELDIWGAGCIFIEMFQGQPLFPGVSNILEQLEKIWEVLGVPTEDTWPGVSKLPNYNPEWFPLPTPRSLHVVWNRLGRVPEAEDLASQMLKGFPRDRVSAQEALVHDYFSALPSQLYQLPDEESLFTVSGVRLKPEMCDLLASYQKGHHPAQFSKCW

SMILES | kinase still bound, per cent of control
CCN1CCN(Cc2ccc(NC(=O)c3ccc(C)c(/C=C/c4cnc(Nc5cc(N6CCNCC6)nc(C)n5)cn4)c3)cc2C(F)(F)F)CC1 | 53%
CCOc1cc(N2CCC(N3CCCCC3)CC2)ccc1Nc1nc(Nc2ccccc2S(=O)(=O)C(C)C)c2cn[nH]c2n1 | 100%
CCN1CCN(Cc2ccc(NC(=O)c3ccc(C)c(Oc4ccnc5[nH]ccc45)c3)cc2C(F)(F)F)CC1 | 6%

target: MAP2K4 (human) (UniProt P45985); assay: KINOMEscan competition binding; details: compound 10.0 µM
Sequence (P45985 whole entry, looked up): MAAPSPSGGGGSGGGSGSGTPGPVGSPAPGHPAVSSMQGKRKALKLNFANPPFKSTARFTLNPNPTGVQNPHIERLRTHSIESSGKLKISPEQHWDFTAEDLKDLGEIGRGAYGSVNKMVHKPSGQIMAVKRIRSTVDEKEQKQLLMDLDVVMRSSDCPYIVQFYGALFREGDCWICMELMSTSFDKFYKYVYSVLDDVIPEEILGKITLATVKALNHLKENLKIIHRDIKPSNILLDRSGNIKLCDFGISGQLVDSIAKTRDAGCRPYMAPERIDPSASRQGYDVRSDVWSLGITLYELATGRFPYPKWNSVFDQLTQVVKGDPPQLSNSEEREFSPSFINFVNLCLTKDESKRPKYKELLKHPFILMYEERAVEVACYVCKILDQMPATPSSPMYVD

SMILES | kinase still bound, per cent of control
CCN1CCN(Cc2ccc(NC(=O)c3ccc(C)c(/C=C/c4cnc(Nc5cc(N6CCNCC6)nc(C)n5)cn4)c3)cc2C(F)(F)F)CC1 | 100%
COc1cc(N2CCC(N3CCN(C)CC3)CC2)ccc1Nc1ncc(Cl)c(Nc2ccccc2S(=O)(=O)C(C)C)n1 | 1.6%
CCOc1cc(N2CCC(N3CCCCC3)CC2)ccc1Nc1nc(Nc2ccccc2S(=O)(=O)C(C)C)c2cn[nH]c2n1 | 8.2%

target: PAK7 (human) (UniProt Q9P286); assay: KINOMEscan competition binding; details: compound 10.0 µM

SMILES | kinase still bound, per cent of control
CCN1CCN(Cc2ccc(NC(=O)c3ccc(C)c(/C=C/c4cnc(Nc5cc(N6CCNCC6)nc(C)n5)cn4)c3)cc2C(F)(F)F)CC1 | 100%
COc1cc(N2CCC(N3CCN(C)CC3)CC2)ccc1Nc1ncc(Cl)c(Nc2ccccc2S(=O)(=O)C(C)C)n1 | 2.7%
CCOc1cc(N2CCC(N3CCCCC3)CC2)ccc1Nc1nc(Nc2ccccc2S(=O)(=O)C(C)C)c2cn[nH]c2n1 | 80%

target: STK17B (human) (UniProt O94768); assay: KINOMEscan competition binding; details: compound 10.0 µM

SMILES | kinase still bound, per cent of control
CCN1CCN(Cc2ccc(NC(=O)c3ccc(C)c(/C=C/c4cnc(Nc5cc(N6CCNCC6)nc(C)n5)cn4)c3)cc2C(F)(F)F)CC1 | 2%
COc1cc(N2CCC(N3CCN(C)CC3)CC2)ccc1Nc1ncc(Cl)c(Nc2ccccc2S(=O)(=O)C(C)C)n1 | 40%
CCOc1cc(N2CCC(N3CCCCC3)CC2)ccc1Nc1nc(Nc2ccccc2S(=O)(=O)C(C)C)c2cn[nH]c2n1 | 100%

system: EGFR (human), P00533 [L858R]; assay: KINOMEscan competition binding; details: compound 10.0 µM

SMILES | kinase still bound, per cent of control
CCN1CCN(Cc2ccc(NC(=O)c3ccc(C)c(/C=C/c4cnc(Nc5cc(N6CCNCC6)nc(C)n5)cn4)c3)cc2C(F)(F)F)CC1 | 3.4%
COc1cc(N2CCC(N3CCN(C)CC3)CC2)ccc1Nc1ncc(Cl)c(Nc2ccccc2S(=O)(=O)C(C)C)n1 | 0.1%
CCOc1cc(N2CCC(N3CCCCC3)CC2)ccc1Nc1nc(Nc2ccccc2S(=O)(=O)C(C)C)c2cn[nH]c2n1 | 6.6%
CCN1CCN(Cc2ccc(NC(=O)c3ccc(C)c(Oc4ccnc5[nH]ccc45)c3)cc2C(F)(F)F)CC1 | 14%

target: FES (human) (UniProt P07332); assay: KINOMEscan competition binding; details: not given
Sequence (P07332 whole entry, looked up): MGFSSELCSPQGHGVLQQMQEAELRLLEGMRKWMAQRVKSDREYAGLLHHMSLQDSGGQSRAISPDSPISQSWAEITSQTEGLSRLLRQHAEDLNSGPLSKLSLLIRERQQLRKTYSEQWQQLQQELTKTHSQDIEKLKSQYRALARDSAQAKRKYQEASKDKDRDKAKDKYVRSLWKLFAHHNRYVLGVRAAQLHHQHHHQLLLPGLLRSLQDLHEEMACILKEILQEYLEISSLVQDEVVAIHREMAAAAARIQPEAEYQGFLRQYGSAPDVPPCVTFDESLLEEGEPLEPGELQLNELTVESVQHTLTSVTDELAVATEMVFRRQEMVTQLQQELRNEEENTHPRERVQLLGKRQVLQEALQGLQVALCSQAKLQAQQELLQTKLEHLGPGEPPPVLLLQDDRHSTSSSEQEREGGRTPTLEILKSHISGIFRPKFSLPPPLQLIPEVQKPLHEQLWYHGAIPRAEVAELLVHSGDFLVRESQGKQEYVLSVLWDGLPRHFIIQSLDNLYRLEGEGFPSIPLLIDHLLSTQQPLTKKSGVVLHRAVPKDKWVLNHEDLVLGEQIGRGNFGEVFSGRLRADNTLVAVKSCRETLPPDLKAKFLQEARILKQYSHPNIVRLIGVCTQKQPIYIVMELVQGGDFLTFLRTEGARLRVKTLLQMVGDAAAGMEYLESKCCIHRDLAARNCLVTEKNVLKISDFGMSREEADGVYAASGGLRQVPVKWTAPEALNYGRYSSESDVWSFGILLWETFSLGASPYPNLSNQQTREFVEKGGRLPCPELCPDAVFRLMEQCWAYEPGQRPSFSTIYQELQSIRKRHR

SMILES | IC50
CCOc1cc(N2CCC(N3CCCCC3)CC2)ccc1Nc1nc(Nc2ccccc2S(=O)(=O)C(C)C)c2cn[nH]c2n1 | 58 µM

same assay, conditions: compound 10.0 µM

SMILES | kinase still bound, per cent of control
CCN1CCN(Cc2ccc(NC(=O)c3ccc(C)c(/C=C/c4cnc(Nc5cc(N6CCNCC6)nc(C)n5)cn4)c3)cc2C(F)(F)F)CC1 | 9.4%
CCOc1cc(N2CCC(N3CCCCC3)CC2)ccc1Nc1nc(Nc2ccccc2S(=O)(=O)C(C)C)c2cn[nH]c2n1 | 3.6%
CCN1CCN(Cc2ccc(NC(=O)c3ccc(C)c(Oc4ccnc5[nH]ccc45)c3)cc2C(F)(F)F)CC1 | 2.2%

target: RPS6KA2 KD1 (human) (UniProt Q15349); assay: KINOMEscan competition binding; details: compound 10.0 µM

SMILES | kinase still bound, per cent of control
CCN1CCN(Cc2ccc(NC(=O)c3ccc(C)c(/C=C/c4cnc(Nc5cc(N6CCNCC6)nc(C)n5)cn4)c3)cc2C(F)(F)F)CC1 | 69%
COc1cc(N2CCC(N3CCN(C)CC3)CC2)ccc1Nc1ncc(Cl)c(Nc2ccccc2S(=O)(=O)C(C)C)n1 | 0.05%
CCOc1cc(N2CCC(N3CCCCC3)CC2)ccc1Nc1nc(Nc2ccccc2S(=O)(=O)C(C)C)c2cn[nH]c2n1 | 77%

target: CDK19 (human) (UniProt Q9BWU1); assay: KINOMEscan competition binding; details: compound 10.0 µM
Sequence (Q9BWU1 whole entry, looked up): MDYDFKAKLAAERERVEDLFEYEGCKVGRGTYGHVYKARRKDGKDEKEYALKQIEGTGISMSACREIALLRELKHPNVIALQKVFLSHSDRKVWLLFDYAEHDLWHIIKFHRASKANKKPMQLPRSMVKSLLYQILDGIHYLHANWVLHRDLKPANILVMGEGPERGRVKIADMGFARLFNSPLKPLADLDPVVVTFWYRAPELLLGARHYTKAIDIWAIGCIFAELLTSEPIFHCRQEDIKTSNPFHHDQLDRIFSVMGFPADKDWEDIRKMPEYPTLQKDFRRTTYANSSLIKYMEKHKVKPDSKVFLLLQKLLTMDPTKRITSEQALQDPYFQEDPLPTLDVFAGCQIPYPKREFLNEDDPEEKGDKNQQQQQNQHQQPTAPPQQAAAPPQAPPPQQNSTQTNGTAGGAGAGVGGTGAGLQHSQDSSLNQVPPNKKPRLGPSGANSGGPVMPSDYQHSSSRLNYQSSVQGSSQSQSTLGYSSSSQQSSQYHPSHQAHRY

SMILES | kinase still bound, per cent of control
CCN1CCN(Cc2ccc(NC(=O)c3ccc(C)c(/C=C/c4cnc(Nc5cc(N6CCNCC6)nc(C)n5)cn4)c3)cc2C(F)(F)F)CC1 | 3.5%
COc1cc(N2CCC(N3CCN(C)CC3)CC2)ccc1Nc1ncc(Cl)c(Nc2ccccc2S(=O)(=O)C(C)C)n1 | 40%
CCOc1cc(N2CCC(N3CCCCC3)CC2)ccc1Nc1nc(Nc2ccccc2S(=O)(=O)C(C)C)c2cn[nH]c2n1 | 100%
CCN1CCN(Cc2ccc(NC(=O)c3ccc(C)c(Oc4ccnc5[nH]ccc45)c3)cc2C(F)(F)F)CC1 | 0.1%

target: PIP4K2B (human) (UniProt P78356); assay: KINOMEscan competition binding; details: compound 10.0 µM

SMILES | kinase still bound, per cent of control
CCN1CCN(Cc2ccc(NC(=O)c3ccc(C)c(/C=C/c4cnc(Nc5cc(N6CCNCC6)nc(C)n5)cn4)c3)cc2C(F)(F)F)CC1 | 83%
COc1cc(N2CCC(N3CCN(C)CC3)CC2)ccc1Nc1ncc(Cl)c(Nc2ccccc2S(=O)(=O)C(C)C)n1 | 11%
CCOc1cc(N2CCC(N3CCCCC3)CC2)ccc1Nc1nc(Nc2ccccc2S(=O)(=O)C(C)C)c2cn[nH]c2n1 | 100%

target: RPS6KA1 KD2 (human) (UniProt Q15418); assay: KINOMEscan competition binding; details: compound 10.0 µM
Sequence (Q15418 whole entry, looked up): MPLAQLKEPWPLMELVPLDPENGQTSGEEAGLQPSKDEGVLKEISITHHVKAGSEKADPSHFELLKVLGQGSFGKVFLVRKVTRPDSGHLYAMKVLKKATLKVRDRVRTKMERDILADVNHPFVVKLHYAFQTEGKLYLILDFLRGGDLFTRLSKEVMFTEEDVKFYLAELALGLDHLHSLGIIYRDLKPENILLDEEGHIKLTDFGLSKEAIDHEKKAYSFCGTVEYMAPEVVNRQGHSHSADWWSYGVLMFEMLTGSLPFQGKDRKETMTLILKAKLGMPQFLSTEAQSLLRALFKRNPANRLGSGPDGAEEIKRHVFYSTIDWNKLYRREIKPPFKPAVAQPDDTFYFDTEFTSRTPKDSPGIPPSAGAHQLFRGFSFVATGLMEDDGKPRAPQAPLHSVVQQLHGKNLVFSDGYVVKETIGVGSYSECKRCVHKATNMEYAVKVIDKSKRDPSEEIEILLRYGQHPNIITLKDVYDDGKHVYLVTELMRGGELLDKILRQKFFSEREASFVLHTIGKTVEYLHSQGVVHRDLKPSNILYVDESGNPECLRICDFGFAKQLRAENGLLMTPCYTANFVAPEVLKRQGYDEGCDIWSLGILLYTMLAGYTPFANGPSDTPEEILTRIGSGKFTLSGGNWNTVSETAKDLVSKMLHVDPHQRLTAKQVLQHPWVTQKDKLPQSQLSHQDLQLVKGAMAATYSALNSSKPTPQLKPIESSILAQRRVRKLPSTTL

SMILES | kinase still bound, per cent of control
CCN1CCN(Cc2ccc(NC(=O)c3ccc(C)c(/C=C/c4cnc(Nc5cc(N6CCNCC6)nc(C)n5)cn4)c3)cc2C(F)(F)F)CC1 | 13%
COc1cc(N2CCC(N3CCN(C)CC3)CC2)ccc1Nc1ncc(Cl)c(Nc2ccccc2S(=O)(=O)C(C)C)n1 | 10%
CCOc1cc(N2CCC(N3CCCCC3)CC2)ccc1Nc1nc(Nc2ccccc2S(=O)(=O)C(C)C)c2cn[nH]c2n1 | 14%

target: MAP4K1 (human) (UniProt Q92918); assay: KINOMEscan competition binding; details: compound 10.0 µM

SMILES | kinase still bound, per cent of control
CCN1CCN(Cc2ccc(NC(=O)c3ccc(C)c(/C=C/c4cnc(Nc5cc(N6CCNCC6)nc(C)n5)cn4)c3)cc2C(F)(F)F)CC1 | 0%
CCOc1cc(N2CCC(N3CCCCC3)CC2)ccc1Nc1nc(Nc2ccccc2S(=O)(=O)C(C)C)c2cn[nH]c2n1 | 54%
CCN1CCN(Cc2ccc(NC(=O)c3ccc(C)c(Oc4ccnc5[nH]ccc45)c3)cc2C(F)(F)F)CC1 | 1.6%

system: KIT (human), P10721 [D816V]; assay: KINOMEscan competition binding; details: compound 10.0 µM
Sequence (P10721 whole entry D816V, looked up): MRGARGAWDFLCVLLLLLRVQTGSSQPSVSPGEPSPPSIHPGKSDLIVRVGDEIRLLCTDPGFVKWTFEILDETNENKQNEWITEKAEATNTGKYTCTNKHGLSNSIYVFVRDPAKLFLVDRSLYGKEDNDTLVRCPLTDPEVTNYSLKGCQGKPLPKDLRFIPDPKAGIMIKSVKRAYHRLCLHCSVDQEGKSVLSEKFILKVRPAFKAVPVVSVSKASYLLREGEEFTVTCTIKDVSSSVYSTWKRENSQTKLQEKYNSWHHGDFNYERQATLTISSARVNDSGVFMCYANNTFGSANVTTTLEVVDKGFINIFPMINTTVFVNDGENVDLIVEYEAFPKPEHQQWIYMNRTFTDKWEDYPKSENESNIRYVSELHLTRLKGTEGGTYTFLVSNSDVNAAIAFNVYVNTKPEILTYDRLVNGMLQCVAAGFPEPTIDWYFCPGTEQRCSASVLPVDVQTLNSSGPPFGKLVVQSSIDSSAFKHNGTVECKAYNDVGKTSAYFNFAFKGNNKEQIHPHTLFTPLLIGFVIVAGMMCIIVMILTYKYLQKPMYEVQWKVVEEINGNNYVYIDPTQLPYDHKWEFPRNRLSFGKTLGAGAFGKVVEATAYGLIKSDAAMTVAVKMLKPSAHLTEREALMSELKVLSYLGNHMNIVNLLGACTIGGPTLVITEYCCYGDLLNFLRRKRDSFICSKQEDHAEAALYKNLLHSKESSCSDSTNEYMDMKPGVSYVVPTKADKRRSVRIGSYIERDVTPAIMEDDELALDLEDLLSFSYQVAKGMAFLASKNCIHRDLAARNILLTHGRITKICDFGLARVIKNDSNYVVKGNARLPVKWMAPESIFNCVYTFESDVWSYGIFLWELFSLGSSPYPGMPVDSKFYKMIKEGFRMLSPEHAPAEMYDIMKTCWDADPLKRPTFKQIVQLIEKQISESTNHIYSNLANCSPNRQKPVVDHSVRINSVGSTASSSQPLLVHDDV

SMILES | kinase still bound, per cent of control
CCN1CCN(Cc2ccc(NC(=O)c3ccc(C)c(/C=C/c4cnc(Nc5cc(N6CCNCC6)nc(C)n5)cn4)c3)cc2C(F)(F)F)CC1 | 25%
COc1cc(N2CCC(N3CCN(C)CC3)CC2)ccc1Nc1ncc(Cl)c(Nc2ccccc2S(=O)(=O)C(C)C)n1 | 3.1%
CCOc1cc(N2CCC(N3CCCCC3)CC2)ccc1Nc1nc(Nc2ccccc2S(=O)(=O)C(C)C)c2cn[nH]c2n1 | 74%

target: MAP3K4 (human) (UniProt Q9Y6R4); assay: KINOMEscan competition binding; details: compound 10.0 µM

SMILES | kinase still bound, per cent of control
CCN1CCN(Cc2ccc(NC(=O)c3ccc(C)c(/C=C/c4cnc(Nc5cc(N6CCNCC6)nc(C)n5)cn4)c3)cc2C(F)(F)F)CC1 | 2.5%
COc1cc(N2CCC(N3CCN(C)CC3)CC2)ccc1Nc1ncc(Cl)c(Nc2ccccc2S(=O)(=O)C(C)C)n1 | 13%
CCOc1cc(N2CCC(N3CCCCC3)CC2)ccc1Nc1nc(Nc2ccccc2S(=O)(=O)C(C)C)c2cn[nH]c2n1 | 100%

target: CSNK1G3 (human) (UniProt Q9Y6M4); assay: KINOMEscan competition binding; details: compound 10.0 µM
Sequence (Q9Y6M4 whole entry, looked up): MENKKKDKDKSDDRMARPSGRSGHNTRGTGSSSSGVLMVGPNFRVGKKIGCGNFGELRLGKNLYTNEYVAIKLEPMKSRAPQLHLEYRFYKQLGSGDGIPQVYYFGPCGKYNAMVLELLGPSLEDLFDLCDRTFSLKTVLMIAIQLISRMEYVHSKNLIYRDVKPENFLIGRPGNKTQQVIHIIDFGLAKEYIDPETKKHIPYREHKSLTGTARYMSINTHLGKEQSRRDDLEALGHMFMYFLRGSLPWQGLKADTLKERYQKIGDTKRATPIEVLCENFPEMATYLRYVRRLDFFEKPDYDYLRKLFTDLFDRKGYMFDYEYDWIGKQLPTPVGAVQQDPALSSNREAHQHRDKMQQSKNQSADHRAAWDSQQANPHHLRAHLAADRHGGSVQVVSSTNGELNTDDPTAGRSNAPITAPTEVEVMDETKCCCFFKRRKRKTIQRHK

SMILES | kinase still bound, per cent of control
CCN1CCN(Cc2ccc(NC(=O)c3ccc(C)c(/C=C/c4cnc(Nc5cc(N6CCNCC6)nc(C)n5)cn4)c3)cc2C(F)(F)F)CC1 | 100%
COc1cc(N2CCC(N3CCN(C)CC3)CC2)ccc1Nc1ncc(Cl)c(Nc2ccccc2S(=O)(=O)C(C)C)n1 | 40%
CCOc1cc(N2CCC(N3CCCCC3)CC2)ccc1Nc1nc(Nc2ccccc2S(=O)(=O)C(C)C)c2cn[nH]c2n1 | 50%

target: LIMK1 (human) (UniProt P53667); assay: KINOMEscan competition binding; details: compound 10.0 µM

SMILES | kinase still bound, per cent of control
CCN1CCN(Cc2ccc(NC(=O)c3ccc(C)c(/C=C/c4cnc(Nc5cc(N6CCNCC6)nc(C)n5)cn4)c3)cc2C(F)(F)F)CC1 | 15%
COc1cc(N2CCC(N3CCN(C)CC3)CC2)ccc1Nc1ncc(Cl)c(Nc2ccccc2S(=O)(=O)C(C)C)n1 | 2.2%
CCOc1cc(N2CCC(N3CCCCC3)CC2)ccc1Nc1nc(Nc2ccccc2S(=O)(=O)C(C)C)c2cn[nH]c2n1 | 100%

target: CDK11B (human) (UniProt P21127); assay: KINOMEscan competition binding; details: compound 10.0 µM

SMILES | kinase still bound, per cent of control
CCN1CCN(Cc2ccc(NC(=O)c3ccc(C)c(/C=C/c4cnc(Nc5cc(N6CCNCC6)nc(C)n5)cn4)c3)cc2C(F)(F)F)CC1 | 78%
COc1cc(N2CCC(N3CCN(C)CC3)CC2)ccc1Nc1ncc(Cl)c(Nc2ccccc2S(=O)(=O)C(C)C)n1 | 40%
CCOc1cc(N2CCC(N3CCCCC3)CC2)ccc1Nc1nc(Nc2ccccc2S(=O)(=O)C(C)C)c2cn[nH]c2n1 | 100%
CCN1CCN(Cc2ccc(NC(=O)c3ccc(C)c(Oc4ccnc5[nH]ccc45)c3)cc2C(F)(F)F)CC1 | 0.35%

target: ROCK2 (human) (UniProt O75116); assay: KINOMEscan competition binding; details: compound 10.0 µM

SMILES | kinase still bound, per cent of control
CCN1CCN(Cc2ccc(NC(=O)c3ccc(C)c(/C=C/c4cnc(Nc5cc(N6CCNCC6)nc(C)n5)cn4)c3)cc2C(F)(F)F)CC1 | 51%
COc1cc(N2CCC(N3CCN(C)CC3)CC2)ccc1Nc1ncc(Cl)c(Nc2ccccc2S(=O)(=O)C(C)C)n1 | 0.95%
CCOc1cc(N2CCC(N3CCCCC3)CC2)ccc1Nc1nc(Nc2ccccc2S(=O)(=O)C(C)C)c2cn[nH]c2n1 | 25%
